This note sets out measurements from publication PMC12084349 (Communications Biology, 2025).

A word on the Kd: it is the free concentration of one partner at which half of the binding sites on the other are occupied at equilibrium, for simple one-to-one binding. Low values mean a tighter complex, high ones a looser complex.

One experiment deals with Aha1 (Homo sapiens, UniProt O95433). The experiment can be described thus: ITC. The experiment is classed as binding.
The next experiment concerns the target Hsp90-NTD (Homo sapiens, UniProt P07900). Briefly: [1H, […]] HSQC NMR titration. The experiment is classed as binding.

Aha1, sequence (O95433 204-338): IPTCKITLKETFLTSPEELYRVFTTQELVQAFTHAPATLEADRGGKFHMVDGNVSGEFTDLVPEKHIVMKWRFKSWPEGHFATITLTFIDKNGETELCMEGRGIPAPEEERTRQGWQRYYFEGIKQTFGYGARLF

As for `CCc1oc2ccccc2c1C(=O)c1cc(Br)c(O)c(Br)c1` [Benzbromarone], the Kd at Aha1 came out at 0.84 ± 0.35 µM; at Hsp90-NTD, 15.1 ± 3.86 µM.
